{"source": "paper PMC10720383", "about": "“Acetylcholinesterase Inhibition in Rats and Humans Following Acute Fenitrothion Exposure Predicted by Physiologically Based Kinetic Modeling-Facilitated Quantitative In Vitro to In Vivo Extrapolation” (Environmental Science & Technology, 2023)", "key": {"[1]": {"system": "erythrocyte AChE", "assay": "PBK modeling-facilitated QIVIVE and BMD analysis, rat", "details": "erythrocyte AChE inhibition, acute oral FNT exposure", "description": "For toxicity prediction, the maximum blood FNO concentration was used as a dose metric relating AChE inhibition to acute FNT exposure (see section 3.3). Since the in vitro AChE inhibition under increasing FNO concentrations was tested in rat and human blood, these nominal concentrations could be used directly as the biological effective concentrations (in vivo maximum blood FNO concentrations), and no extra correction for differences in in vitro and in vivo protein binding was deemed necessary. Then the corresponding FNT dose levels resulting in these in vivo concentrations were derived via PBK modeling-facilitated reverse dosimetry. In doing so, the in vitro concentration–response relationship was converted to the predicted in vivo dose-dependent erythrocyte AChE inhibition, which was then compared to available in vivo toxicity data in rats and humans.[8],[39]\nBMD modeling was used to derive POD values from the predicted in vivo dose-dependent data sets for rats and humans. A BMD value resulting in a 10% benchmark response (BMR) change with lower 95% confidence limit was defined as BMDL10, and the obtained values for rats and humans were evaluated against the reported NOAELs.[1],[11]−[13] Details and results of BMD analysis are provided in the Supporting Information. […]\nBMD modeling was used to derive POD values from the predicted in vivo dose-response curves for rats and humans. […]"}, "[2]": {"details": "humans, oral exposure; cited from earlier work"}}, "data": [{"compound": "COP(=S)(OC)Oc1ccc([N+](=O)[O-])c(C)c1", "note": "[FNT, O,O-dimethyl O-4-nitro-m-tolyl phosphorothioate]", "values": [{"measurement": "predicted BMDL10 (POD)", "setting": "[1]; 10% BMR, lower 95% confidence limit", "value": 1.30, "unit": "mg/kg BW"}, {"measurement": "BMDU10", "setting": "[1]; upper confidence limit", "value": 1.71, "unit": "mg/kg BW"}, {"measurement": "fraction of the dose absorbed (Fa)", "setting": "[2]", "value": 0.7}]}]}
